Laboratory results reported in patent publication US8143226B2, “Tyrosine kinase receptor antagonists and methods of treatment for breast cancer” (The Regents of the University of California, priority 2005, dated 2012).
pIC50: −log10 of the molar value.

How the values were obtained:
[1] = test system: MCF-7/neo cells; experiment: Growth of MCF-7/neo cells with RTK inhibitors, 6 days (CyQuant); type: cell-based; settings: Homo sapiens, MCF7, 144 h, read-out: one half maximal effect on growth
Experimental: MCF-7/neo or MCF-7/HER2-18 cells were plated in 96 well plates (4×10^3 cells/well) in 100 μl/well of DMEM-10 medium. […] Media with inhibitors was refreshed on day 3 and the cultures were harvested on day 6. The plates were inverted onto paper towels with gentle blotting to remove growth medium without disrupting adherent cells. Each plate was kept at −80° C. until assayed for cell growth. After thawing the plate at room temperature, 200 μl of CyQuant GR solution was added to each well and the plates were incubated in the dark for five minutes. Fluorescence was measured with a SpectraMax Gemini XS fluorescence microplate reader (Molecular Devices) with 480-nm excitation and 520-nm emission.

[2] = molecular target: T1, IGF-IR (Homo sapiens, UniProt P08069); experiment: IGF-IR phosphorylation ELISA in neuroblastoma cells; type: cell-based; settings: SHEP and SH-SY5Y cells, 60 μM NDGA 1 h, 1 nM IGF-I 10 min
T1 construct: endogenous in cells; host or cells: SH-SY5Y and SHEP
T1 sequence (P08069 31-1367): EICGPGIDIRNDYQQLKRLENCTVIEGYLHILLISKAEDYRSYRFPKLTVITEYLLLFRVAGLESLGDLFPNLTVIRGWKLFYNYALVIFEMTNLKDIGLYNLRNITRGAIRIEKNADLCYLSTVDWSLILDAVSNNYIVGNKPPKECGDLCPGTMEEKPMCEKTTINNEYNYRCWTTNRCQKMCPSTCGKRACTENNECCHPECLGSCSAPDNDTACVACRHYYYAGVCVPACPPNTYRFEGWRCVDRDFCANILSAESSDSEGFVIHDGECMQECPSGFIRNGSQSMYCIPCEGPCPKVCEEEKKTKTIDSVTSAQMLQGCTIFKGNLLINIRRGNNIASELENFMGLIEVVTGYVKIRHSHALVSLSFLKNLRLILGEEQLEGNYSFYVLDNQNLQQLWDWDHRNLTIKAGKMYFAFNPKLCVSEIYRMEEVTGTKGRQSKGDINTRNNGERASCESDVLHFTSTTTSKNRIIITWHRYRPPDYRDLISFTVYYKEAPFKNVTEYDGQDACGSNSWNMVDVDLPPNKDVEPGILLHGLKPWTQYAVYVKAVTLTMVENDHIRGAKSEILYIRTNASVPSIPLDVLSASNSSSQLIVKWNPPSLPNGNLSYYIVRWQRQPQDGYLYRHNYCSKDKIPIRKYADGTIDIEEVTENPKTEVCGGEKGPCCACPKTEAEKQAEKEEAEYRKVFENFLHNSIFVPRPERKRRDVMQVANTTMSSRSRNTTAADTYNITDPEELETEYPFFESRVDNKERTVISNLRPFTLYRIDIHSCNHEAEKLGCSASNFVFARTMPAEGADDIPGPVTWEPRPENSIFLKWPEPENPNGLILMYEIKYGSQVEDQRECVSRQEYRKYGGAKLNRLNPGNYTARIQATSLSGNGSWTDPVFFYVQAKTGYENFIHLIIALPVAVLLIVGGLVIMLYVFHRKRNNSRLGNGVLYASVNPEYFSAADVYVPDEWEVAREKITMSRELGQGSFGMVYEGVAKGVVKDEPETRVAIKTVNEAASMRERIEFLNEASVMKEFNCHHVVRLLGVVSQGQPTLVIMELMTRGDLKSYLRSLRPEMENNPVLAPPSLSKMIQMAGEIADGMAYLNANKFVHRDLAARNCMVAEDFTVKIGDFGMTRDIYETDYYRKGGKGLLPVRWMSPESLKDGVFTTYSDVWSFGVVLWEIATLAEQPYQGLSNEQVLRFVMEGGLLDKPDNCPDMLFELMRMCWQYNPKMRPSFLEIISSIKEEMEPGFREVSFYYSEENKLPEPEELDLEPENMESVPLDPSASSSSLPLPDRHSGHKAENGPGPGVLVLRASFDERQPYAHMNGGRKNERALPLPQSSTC
Experimental: IGF-1R phlosphorylation ELISA. SH-SY5Y and SHEP cells were grown to 80% confluence in DMEM/10% calf serum, then serum-starved for 4 h. […] Some cultures were then treated with 1 nM IGF-I for 10 min. The medium was removed, cultures rinsed 3× in cold PBS, and lysis buffer (120 mM HEPES, 300 mM NaCl, 2 mM sodium orthovanadate, and 1 mM phenylmethylsufonylfluoride (PMSF)) was added. Cultures were rocked in lysis buffer at 4° C. for 1 h. 96-well plates were coated with αIR-3 antibody in 50 mM NaHCO3, pH 9.0, for 2 h at RT. Plates were rinsed 3× in tris-buffered saline +0.1% Tween (TBST), then blocked with SuperBlock (Pierce, Rockford, Ill.) for 30 min at RT. Each well of the ELISA plate received 30 μg of lysate protein from the cell cultures, followed by 24 h incubation at 4° C. Plates were rinsed 5× with TBST, and HRP-conjugated anti-phosphotyrosine antibody was added (1:2000, diluted in 120 mM HEPES, 300 mM NaCl, 2 mM sodium orthovanadate. and 1 mM PMSF. 1% bovine serum albumin, 1 mg/ml bacitracin, and 0.5% Tween-20) for 2 h at RT. Plates were again rinsed 5× in TBST, and TMB (Pierce) was added until blue color was sufficiently developed. […] Each lysate was run in triplicate, and the experiment was repeated 3 times.

[3] = molecular target: IGF-1R (Homo sapiens, UniProt P08069); experiment: Tyrosine kinase activity of partially purified IGF-1R on poly Glu4:Tyr1 (ELISA); type: biochemical; set-up: made in house; host or cells: CHO cells (CHOIGF-1R / CHO-IGFR), partially purified by wheat germ agglutinin chromatography
Chain of IGF-1R (Homo sapiens, UniProt P08069) (P08069 31-1367): as above
Experimental: IGF-1 and HER2/neu receptors were partially purified by WGA chromatography of cells overexpressing the protein of interest. To isolate IGF-1R, CHO cells transfected with and overexpressing the human IGF-1R (CHOIGF-1R) were plated in T-150 flasks and grown in DMEM supplemented with 10% fetal calf serum (FCS) until 80% confluent. Cells were harvested in the basal state and solubilized in 50 mM HEPES, 10% glycerol, 1% Triton X-100, 150 mM NaCl, 5 μM EGTA, 0.24 mg/ml aminoethyl-benzensulfonyl fluoride (AEBSF), 10 μg/ml aprotinin, 25 mM benzamidine, 10 μg soybean trypsin inhibitor, and 5 μg/ml leuptin for one hour at 4° C. Samples were centrifuged for 60 minutes at 100,000 g and solubilized extract collected. Rodent HER2/neu receptors were collected from MCNeuA cells crown under identical conditions and processed similarly. Lysates from both cell lines were loaded onto a 1 ml wheat germ agglutin (WGA) column (Pharmacia, Piscataway, N.J.), washed with WGA buffer (50 mM HEPES pH 7.6, 150 mM NaCl, 0.1% Triton X-100, 1 mg/ml bacitracin, and 1 mM PMSF). Receptors were then eluted with WGA buffer supplemented with 0.3 N N-Acetyl-D-glucosamine. WGA fractions containing RTK of interest were determined by SDS page and a western blot that employed antibodies against either the IGF-1R or HER2/neu as appropriate. […]

[4] = molecular target: T2, IGF-1R (Mus musculus, UniProt Q60751); experiment: IGF-1R autophosphorylation in excised MCNeuA tumors (ELISA); type: in vivo; settings: 37.5 mg/kg i.p. three times a week, 16 hours after final dose, vs vehicle
T2 construct: from tissue; host or cells: MCNeuA tumours excised from neuTg mice
T2 sequence (Q60751 31-1373): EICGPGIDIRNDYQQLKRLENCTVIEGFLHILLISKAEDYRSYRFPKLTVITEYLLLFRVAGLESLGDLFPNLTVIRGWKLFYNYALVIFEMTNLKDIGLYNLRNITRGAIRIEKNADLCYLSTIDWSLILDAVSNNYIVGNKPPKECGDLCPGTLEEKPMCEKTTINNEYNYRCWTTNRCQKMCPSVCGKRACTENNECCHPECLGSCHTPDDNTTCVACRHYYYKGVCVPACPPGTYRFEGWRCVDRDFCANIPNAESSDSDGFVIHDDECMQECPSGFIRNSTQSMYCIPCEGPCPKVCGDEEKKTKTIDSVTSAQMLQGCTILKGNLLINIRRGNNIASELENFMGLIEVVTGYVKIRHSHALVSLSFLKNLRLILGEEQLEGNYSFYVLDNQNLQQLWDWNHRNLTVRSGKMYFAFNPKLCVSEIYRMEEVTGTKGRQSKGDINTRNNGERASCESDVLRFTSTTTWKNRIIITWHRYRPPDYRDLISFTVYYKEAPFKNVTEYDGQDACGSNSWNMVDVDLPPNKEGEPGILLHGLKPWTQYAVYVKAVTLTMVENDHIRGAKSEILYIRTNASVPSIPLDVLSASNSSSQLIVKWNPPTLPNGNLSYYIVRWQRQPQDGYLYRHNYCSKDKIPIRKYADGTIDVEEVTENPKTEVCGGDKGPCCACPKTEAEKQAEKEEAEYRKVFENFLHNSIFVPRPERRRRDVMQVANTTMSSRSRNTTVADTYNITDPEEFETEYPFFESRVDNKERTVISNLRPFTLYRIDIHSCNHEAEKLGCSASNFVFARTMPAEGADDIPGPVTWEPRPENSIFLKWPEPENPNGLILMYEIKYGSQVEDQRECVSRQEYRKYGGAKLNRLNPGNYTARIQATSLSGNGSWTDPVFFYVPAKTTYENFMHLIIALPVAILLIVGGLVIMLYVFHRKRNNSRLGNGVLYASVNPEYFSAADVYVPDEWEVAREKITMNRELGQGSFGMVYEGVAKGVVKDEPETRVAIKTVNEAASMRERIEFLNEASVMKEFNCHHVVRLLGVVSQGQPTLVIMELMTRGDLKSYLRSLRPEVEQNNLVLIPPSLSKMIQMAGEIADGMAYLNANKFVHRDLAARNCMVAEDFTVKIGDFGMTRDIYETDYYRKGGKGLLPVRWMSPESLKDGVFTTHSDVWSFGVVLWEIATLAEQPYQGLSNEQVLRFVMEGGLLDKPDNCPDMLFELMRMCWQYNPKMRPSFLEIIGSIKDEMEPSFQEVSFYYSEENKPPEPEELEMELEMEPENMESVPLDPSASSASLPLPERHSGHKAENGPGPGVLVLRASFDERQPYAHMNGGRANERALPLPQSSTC
Experimental: Tumors were homogenized in 50 mM HEPES, pH 7.6, 150 mM NaCl, 1 mM PMSF, 2 μM leupeptin, 2 μM Pepstatin A, and 2 mM Na3VO4, and solubilized by the addition of 1% Triton x-100. Soluble lysates were prepared as described for cell culture studies. Tyrosine phosphorylation of IGF-1R was determined by ELISA as described for MCF-7 cells. Phosphorylation of HER2/neu was determined by western blot employing the phospho-specific antibody as in the cell culture studies. The degree of phosphorylation for each receptor was normalized to total receptor protein content in the tumor samples as determined by western blotting with antibodies against the human IGF-1R and the rodent HER2/neu.

[5] = molecular target: T3, IGF-1R kinase domain peptide (Homo sapiens, UniProt P08069); experiment: IGF-1R kinase domain peptide autophosphorylation (western blot); type: biochemical; settings: peptide incubated with NDGA prior to 20 μM ATP
T3 construct: purchased Upstate, USA (Charlottesville, Va.)
T3 sequence (P08069 989-1367): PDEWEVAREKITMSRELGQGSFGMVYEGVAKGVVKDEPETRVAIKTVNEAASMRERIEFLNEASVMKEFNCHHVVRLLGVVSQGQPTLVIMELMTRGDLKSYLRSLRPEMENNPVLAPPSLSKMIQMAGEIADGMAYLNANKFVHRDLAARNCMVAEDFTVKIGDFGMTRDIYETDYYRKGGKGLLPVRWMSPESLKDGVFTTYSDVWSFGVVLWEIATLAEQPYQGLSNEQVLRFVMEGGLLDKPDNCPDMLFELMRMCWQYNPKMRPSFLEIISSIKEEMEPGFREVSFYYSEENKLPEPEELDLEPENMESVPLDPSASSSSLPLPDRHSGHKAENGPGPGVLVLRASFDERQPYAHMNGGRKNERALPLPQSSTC
Experimental: ATP was then added at a final concentration of 20 μM. Autophosphorylation of peptide was allowed to occur for 20 min at 22° C. The reaction was stopped by the addition of SDS-reducing buffer, and the samples were run on SDS-PAGE. Following transfer to nitrocellulose membrane, peptide autophosphorylation was determined by western blotting employing an antibody against phosphotyrosine diluted to 0.5 μg/ml in phosphate buffered saline (PBS) containing 3% milk. The membrane was incubated with the antibody overnight at 4 C. Next, blots were washed 3 times with PBS, then incubated with HRP conjugated sheep anti-rabbit IgG (Amersham, Piscataway, N.J.) diluted 1:50,000 in PBS with 3% milk for 90 minutes at room temperature. After washing, blots were incubated with Super-Signal (Pierce, Rockford, Ill.), and exposed to film. Values were determined by scanning densitometry.

CC(Cc1ccc(O)c(O)c1)C(C)Cc1ccc(O)c(O)c1 (stereo not drawn) [NDGA, nordihydroguaiaretic acid]
pIC50 [1]: 4.90 | IGF-I stimulated IGF-IR tyrosine phosphorylation [2]: inhibited | lowest concentration reducing IGF-1 stimulated tyrosine phosphorylation of poly Glu4:Tyr1 ([3]; NDGA 20 minutes prior to 10 nM IGF-1): 0.3 µM | concentration inhibiting IGF-1-stimulated tyrosine kinase activity of isolated IGF-1R ([3]; summary statement): ≤ 10 µM | IGF-1R autophosphorylation in tumors [4]: reduced | concentration at which activation of the IGF-1R kinase domain was inhibited [5]: 1 µM
